According to patent US20110165094A1, “USE OF VITAMIN E OR DERIVATIVES THEREOF FOR THE CONTROL OF ARTHROPODS” (BIO.LO.GA S.R.L., priority 2008, published 2011):

Tested on: Pediculus capitis
Test: Test 3: comparison of Example 1 formulation with 100% cyclomethicone spray, head louse mortality
Format: in vivo
Details: after 24 hours
Description: A comparison test was also carried out between the formulation of Example 1, a compressed air spray similar to that described in Example 1, but containing 100% of cyclomethicone and a control composed of water.
Head lice were obtained from volunteer children using the same procedures outlined above for test 1.
The lice were distributed in groups of twenty onto squares of open mesh nylon gauze as a support substrate. Each group was placed on 90 millimetre plastic Petri dish.
Each square (4 cm^2) of gauze with the lice attached was then massaged with approx. 5 ml of the formulation to be tested. This was done on the dry gauze so that the formulations could be used neat. The formulations were then left exposed to the air for the specified exposure time.
After the lice had been exposed to the formulation to be tested for a given exposure time, water was added to the gauze, together with approx. 1 ml of shampoo and the gauze was massaged once more to produce a satisfactory foam. The gauze was then rinsed three times with 250 ml of warm tap water (34° C.) poured over and through the gauze squares. The gauze was then blotted dry with medical wipe tissue and incubated under normal maintenance conditions in clean plastic Petri dishes of appropriate dimensions until the results were recorded. […]

CC(=O)Oc1c(C)c(C)c2c(c1C)CCC(C)(CCC[C@H](C)CCC[C@H](C)CCCC(C)C)O2 (stereo partly drawn) [vitamin E acetate, d,l-alpha-Tocopherol acetate]
effect on the lice (inferred from Example 1 vs 100% cyclomethicone spray): significant effect
